Experimental data: patent publication US8865623B2, “Herbicidally active cyclic diones and derivatives thereof, processes for their preparation, compositions, and method of controlling weeds” (Syngenta Limited, priority 2009, dated 2014)

Assays:
Assay type in all cases: in vivo
[1] = test system: Alopecurus myosuroides (ALOMY); test: Post-emergence herbicidal activity, glasshouse pot test; conditions: Alopecurus myosuroides, 312 h, rate 250 g/ha, evaluated after 13 days, glasshouse, read-out: Post-emergence activity ALOMY (100=total damage to plant; 0=no damage to plant)
How it was run: (§1)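 Spray solution: technical a.i. formulated in acetone/water (50:50) with 0.5% Tween 20, diluted in water. Applied to pots 1 d (pre) or 8 d (post) after sowing; glasshouse 24/16° C day/night, 14 h light, 65% humidity. Rated at 13 d, 0–100 damage.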

[2] = test system: Lolium perenne (LOLPE); test: as above; conditions: Lolium perenne, 312 h, rate 250 g/ha, evaluated after 13 days, glasshouse, read-out: Post-emergence activity LOLPE (100=total damage to plant; 0=no damage to plant)
How it was run: as §1

[3] = test system: Avena fatua (AVEFA); test: as above; conditions: Avena fatua, 312 h, rate 250 g/ha, evaluated after 13 days, glasshouse, read-out: Post-emergence activity AVEFA (100=total damage to plant; 0=no damage to plant)
How it was run: as §1

[4] = test system: Echinochloa crus-galli (ECHCG); test: as above; conditions: Echinochloa crus-galli, 312 h, rate 250 g/ha, evaluated after 13 days, glasshouse, read-out: Post-emergence activity ECHCG (100=total damage to plant; 0=no damage to plant)
How it was run: as §1

[5] = test system: Alopecurus myosuroides (ALOMY); test: Pre-emergence herbicidal activity, glasshouse pot test; conditions: Alopecurus myosuroides, 312 h; Rate 250 g/ha; pre-emergence spray; evaluated after 13 days; read-out: Pre-emergence activity ALOMY (100=total damage to plant; 0=no damage to plant)
How it was run: as §1

[6] = test system: Lolium perenne (LOLPE); test: as above; conditions: Lolium perenne, 312 h; Rate 250 g/ha; pre-emergence spray; evaluated after 13 days; read-out: Pre-emergence activity LOLPE (100=total damage to plant; 0=no damage to plant)
How it was run: as §1

[7] = test system: Avena fatua (AVEFA); test: as above; conditions: Avena fatua, 312 h; Rate 250 g/ha; pre-emergence spray; evaluated after 13 days; read-out: Pre-emergence activity AVEFA (100=total damage to plant; 0=no damage to plant)
How it was run: as §1

[8] = test system: Echinochloa crus-galli (ECHCG); test: as above; conditions: Echinochloa crus-galli, 312 h; Rate 250 g/ha; pre-emergence spray; evaluated after 13 days; read-out: Pre-emergence activity ECHCG (100=total damage to plant; 0=no damage to plant)
How it was run: as §1

Structure (SMILES)	pest or weed control at 250 g/ha [1]	pest or weed control at 250 g/ha [2]	pest or weed control at 250 g/ha [3]	pest or weed control at 250 g/ha [4]	pest or weed control at 250 g/ha [5]	pest or weed control at 250 g/ha [6]	pest or weed control at 250 g/ha [7]	pest or weed control at 250 g/ha [8]
CCc1ccc(Oc2ccc(C(F)(F)F)c(C#N)c2)cc1C1=C(O)CC2(CCOCC2)CC1=O [Example A-266]	90%	70%	90%	100%	50%	90%	50%	90%
CCc1ccc(Oc2ccc(C(F)(F)F)cn2)cc1C1=C(O)CC2(CCOCC2)CC1=O [Example A-267]	100%	100%	100%	100%	100%	100%	100%	100%
CCc1ccc(Oc2ncc(Cl)cc2C(F)(F)F)cc1C1=C(O)CC2(CCOCC2)CC1=O [Example A-268]	90%	70%	90%	100%	90%	100%	80%	100%
CCc1ccc(Oc2ncc(C(F)(F)F)cc2C(F)(F)F)cc1C1=C(O)CC2(CCOCC2)CC1=O [Example A-269]	90%	70%	90%	100%	100%	90%	80%	100%
CCc1ccc(Oc2ccc(C#N)cc2F)cc1C1=C(O)CC2(CCOCC2)CC1=O [Example A-270]	90%	70%	90%	100%	90%	90%	60%	100%
CCc1ccc(Oc2ccc(C(F)(F)F)cc2Cl)cc1C1=C(O)CC2(CCOCC2)CC1=O [Example A-271]	90%	70%	90%	100%	90%	90%	50%	100%
CCc1ccc(Oc2ncc(C(F)(F)F)cc2Cl)cc1C1=C(O)CC2(CCOCC2)CC1=O [Example A-272]	90%	70%	90%	100%	100%	100%	100%	100%
CCc1ccc(Oc2ncc(C(F)(F)F)cc2F)cc1C1=C(O)CC2(CCOCC2)CC1=O [Example A-273]	100%	100%	100%	100%	100%	100%	100%	100%
CCc1ccc(Oc2ncc(Cl)cc2F)cc1C1=C(O)CC2(CCOCC2)CC1=O [Example A-274]	100%	100%	100%	100%	100%	100%	100%	100%
CCc1ccc(Oc2ncc(Cl)cc2Cl)cc1C1=C(O)CC2(CCOCC2)CC1=O [Example A-275]	90%	100%	100%	100%	100%	100%	90%	100%
CCc1ccc(Oc2ccc([N+](=O)[O-])c(Cl)c2)cc1C1=C(O)CC2(CCOCC2)CC1=O [Example A-276]	60%	40%	10%	100%	40%	70%	10%	100%
CCc1ccc(Oc2ccc(C#N)c(Cl)c2)cc1C1=C(O)CC2(CCOCC2)CC1=O [Example A-277]	30%	100%	80%	100%	30%	100%	30%	100%
CCc1ccc(Oc2ccc(C(F)(F)F)c(Cl)c2)cc1C1=C(O)CC2(CCOCC2)CC1=O [Example A-278]	100%	100%	100%	100%	60%	70%	70%	0%
CC1(C)OC(C)(C)C(O)=C(c2cc(Oc3cnc4cc(Cl)ccc4n3)ccc2C2CC2)C1=O [Example A-279]	100%	100%	100%	100%	90%	100%	100%	100%
CCc1ccc(Oc2ccc(C#N)c(Cl)c2)cc1C1=C(O)CC(C)(C)CC1=O [Example A-280]	90%	60%	70%	100%	70%	70%	40%	100%
CCc1ccc(Oc2ccc(C(F)(F)F)cc2Cl)cc1C1=C(O)CC(C)(C)CC1=O [Example A-281]	90%	60%	80%	100%	70%	80%	0%	100%
CCc1ccc(Oc2ccc(C(F)(F)F)cc2Br)cc1C1=C(O)CC(C)(C)CC1=O [Example A-282]	70%	40%	60%	100%	10%	60%	10%	100%
CCc1ccc(Oc2ccc(C(F)(F)F)c(Cl)c2)cc1C1=C(O)CC(C)(C)CC1=O [Example A-283]	80%	90%	90%	90%	70%	60%	10%	90%
CCc1ccc(Oc2ccc([N+](=O)[O-])c(Cl)c2)cc1C1=C(O)CC(C)(C)CC1=O [Example A-284]	60%	60%	0%	100%	60%	70%	0%	100%
CCc1ccc(Oc2ncc(C(F)(F)F)cc2F)cc1C1=C(O)CC(C)(C)CC1=O [Example A-285]	100%	100%	100%	100%	90%	100%	70%	100%
CCc1ccc(Oc2nc3ccccc3s2)cc1C1=C(O)CC(C)(C)CC1=O [Example A-286]	100%	100%	90%	100%	90%	100%	40%	100%
